Laboratory results reported in patent US20230102503A1, “BIOMARKERS FOR OXYTOCIN RECEPTOR ANTAGONIST THERAPY” (ObsEva S.A., priority 2020, published 2023).

What was measured:
CYP2D6 = CYP2D6 (Homo sapiens, UniProt P10635); test: metabolism by CYP2D6 isoform; format: in vitro ADME
Description: (§1) At five time points over the course of a 45 minute experiment, the compounds were analyzed by LC-MS/MS. The percentage of each compound remaining at each time point, along with the metabolic half-lives of each compound in the presence of each cytochrome P450 isoform, are indicated in Tables 10-12, below.

CYP2C19 = CYP2C19 (Homo sapiens, UniProt P33261); test: metabolism by CYP2C19 isoform; format: in vitro ADME
Sequence of CYP2C19 (P33261 whole entry, canonical isoform): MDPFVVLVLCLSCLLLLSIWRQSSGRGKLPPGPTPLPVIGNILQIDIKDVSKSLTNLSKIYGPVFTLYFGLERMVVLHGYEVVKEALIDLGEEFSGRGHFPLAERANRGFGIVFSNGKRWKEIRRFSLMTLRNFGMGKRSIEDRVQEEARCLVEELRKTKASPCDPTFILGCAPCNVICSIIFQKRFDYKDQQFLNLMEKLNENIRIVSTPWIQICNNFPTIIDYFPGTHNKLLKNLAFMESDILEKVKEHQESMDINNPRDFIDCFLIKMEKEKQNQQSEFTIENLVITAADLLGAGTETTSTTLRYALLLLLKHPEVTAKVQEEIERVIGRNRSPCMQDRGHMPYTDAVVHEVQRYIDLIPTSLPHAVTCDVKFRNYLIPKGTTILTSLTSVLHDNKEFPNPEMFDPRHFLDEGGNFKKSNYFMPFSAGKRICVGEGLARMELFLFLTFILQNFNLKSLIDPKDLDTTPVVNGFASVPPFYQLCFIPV
Description: as §1

[1] = dispersible tablet formulations; cited from earlier work
[2] = plasma concentration of compound (II) in clinical trial of Example 4; format: in vivo, human; conditions: oral administration of either the 900 mg or the 1,800 mg dose
Description: (§2) Particularly, subjects were pre-treated with estradiol valerate at a dosage of 2 mg administered 3 times per day (TID) for 16 days. Administration of estradiol valerate was followed by vaginal progesterone at a dosage of 200 mg administered TID.

uterine contractions = test: Uterine contractions after single dose versus placebo; format: in vivo, human
[3] = crystal form with XRPD peaks of Table 1; cited from earlier work
[4] = test system: endometrial RNA transcript expression (DPP4, CNTNAP3, CNTN4, CXCL12, TNXB, CTSE, OLFM4, KRT5, KRT6A, IDO2); test: RNA-Seq assay of endometrial tissue mRNA expression before and after administration; format: in vivo, human
Description: Using an RNA-Seq assay, each subject's mRNA expression level of a variety of genes, including DPP4, CNTNAP3, CNTN4, CXCL12, TNXB, CTSE, OLFM4, KRT5, KRT6A, and IDO2, was then assessed to determine whether the expression of each gene increased, decreased, or underwent no significant change due to administration of the compound or placebo.

[5] = test system: healthy female volunteers; test: uterine contractions and endometrial blood flow in clinical trial of Example 4; format: in vivo, human; conditions: single oral dose of 900 mg or 1,800 mg
Description: as §2
These assessments included measurements of uterine contractions by ultrasound and uterine perfusion by a 3D-power Doppler technique.
Mean and median changes in uterine contraction frequency and endometrial vascularity indices (particularly, endometrial flow index (FI), vascularity index (VI), and vascularity flow index (VFI)) were calculated. […] Differences in endometrial mRNA expression were identified and assessed for statistical significance.

CYP3A4 = CYP3A4 (Homo sapiens, UniProt P08684); test: metabolism by CYP3A4 isoform; format: in vitro ADME
Sequence of CYP3A4 (P08684 whole entry, canonical isoform): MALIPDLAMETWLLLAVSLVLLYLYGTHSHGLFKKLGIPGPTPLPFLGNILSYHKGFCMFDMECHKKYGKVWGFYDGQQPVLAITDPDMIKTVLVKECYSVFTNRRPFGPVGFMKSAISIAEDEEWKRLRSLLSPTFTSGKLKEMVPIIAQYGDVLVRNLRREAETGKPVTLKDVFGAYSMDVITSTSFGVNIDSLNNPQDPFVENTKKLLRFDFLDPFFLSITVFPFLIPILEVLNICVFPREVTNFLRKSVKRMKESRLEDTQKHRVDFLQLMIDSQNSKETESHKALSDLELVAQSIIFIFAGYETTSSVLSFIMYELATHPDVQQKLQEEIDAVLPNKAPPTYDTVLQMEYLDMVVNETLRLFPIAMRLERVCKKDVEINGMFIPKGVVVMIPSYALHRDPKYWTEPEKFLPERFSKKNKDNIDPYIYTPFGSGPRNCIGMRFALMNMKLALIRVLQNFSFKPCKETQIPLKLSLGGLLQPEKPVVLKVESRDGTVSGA
Description: as §1

endometrial perfusion = test: Endometrial perfusion parameters (VI, FI, VFI) after single dose; format: in vivo, human; conditions: for increase in median endometrial VFI: between pre-dose and 24-hour post-dose
[6] = test system: spontaneous uterine contractions; conditions: same vehicle, same model organism; cited from earlier work
[7] = 1,800 mg dose, within 24 hours of administration

Sequence of CYP2D6 (P10635 whole entry, canonical isoform): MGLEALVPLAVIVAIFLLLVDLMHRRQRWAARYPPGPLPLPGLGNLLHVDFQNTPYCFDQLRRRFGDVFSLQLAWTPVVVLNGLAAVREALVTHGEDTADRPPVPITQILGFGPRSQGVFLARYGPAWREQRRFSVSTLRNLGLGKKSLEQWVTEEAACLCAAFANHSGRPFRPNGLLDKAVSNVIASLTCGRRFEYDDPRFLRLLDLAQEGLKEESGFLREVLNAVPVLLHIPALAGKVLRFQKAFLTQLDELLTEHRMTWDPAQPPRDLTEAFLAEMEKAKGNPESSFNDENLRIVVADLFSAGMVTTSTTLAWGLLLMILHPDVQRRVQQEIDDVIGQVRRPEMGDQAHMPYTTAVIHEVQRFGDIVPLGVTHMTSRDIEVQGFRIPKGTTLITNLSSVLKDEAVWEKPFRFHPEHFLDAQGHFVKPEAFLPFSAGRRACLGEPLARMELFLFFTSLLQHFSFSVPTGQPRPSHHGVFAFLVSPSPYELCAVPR

## CO/N=C1\C[C@@H](CO)N(C(=O)c2ccc(-c3ccccc3C)cc2)C1 [(3E) isomer, (3E,5S)-5-(hydroxymethyl)-1-[(2′-methyl-1,1′-biphenyl-4-yl)carbonyl]pyrrolidin-3-one O-methyloxime]
CYP2D6
  preferential metabolism by cytochrome P450 isoform: preferentially metabolized by the CYP2D6 and CYP2C19 isoforms of cytochrome P450
CYP2C19
  preferential metabolism by cytochrome P450 isoform: preferentially metabolized by the CYP2D6 and CYP2C19 isoforms of cytochrome P450

## CO/N=C1/C[C@@H](CO)N(C(=O)c2ccc(-c3ccccc3C)cc2)C1 [Compound (II), (3Z,5S)-5-(hydroxymethyl)-1-[(2′-methyl-1,1′-biphenyl-4-yl)carbonyl]pyrrolidin-3-one O-methyloxime]
[1]
  absorption kinetics upon administration to a subject: rapid absorption kinetics
[2]
  time to maximum concentration: about 4 hours
Uterine contractions; 900 mg dose, 24-hour time point only (p=0.0437)
  proportion of subjects showing less than one uterine contraction per minute versus placebo: significant difference
Uterine contractions; 900 mg dose, all time points (p>0.10)
  number of uterine contractions per minute versus placebo: no significant difference
Uterine contractions; 1,800 mg dose, 8-hour time point (p=0.0121)
  proportion of subjects showing less than one uterine contraction per minute versus placebo: significance was seen
Uterine contractions; 1,800 mg dose, from the 4-hour time point onwards (p=0.0923 at 4 h, p=0.0081 at 8 h)
  number of uterine contractions per minute versus placebo: contraction-reducing effects were observed
[3]
  stability of crystal form: enhanced stability to aqueous media and physical stress
[4]; 900 mg dose
  differences in mRNA expression in endometrial biopsy tissue compared to placebo: No differences
[4]; [7]
  number of mRNAs downregulated: 5
  number of mRNAs upregulated: 5
[4]; 1,800 mg dose, within 24 hours of administration, adjusted p<0.05
  number of mRNAs significantly differentially expressed: 10
[5]; FIG. 7
  effect on uterine contractions: decrease uterine contractions
[5]; FIGS. 8-10
  effect on endometrial blood flow (FI, VI, VFI): marked and sustained increase in endometrial blood flow
CYP3A4
  preferential metabolism by cytochrome P450 isoform: preferentially metabolized by the CYP3A4 isoform of cytochrome P450
Endometrial perfusion; 900 mg dose, 24-hour time point (p=0.0502)
  Endometrial Fl: significant increases
Endometrial perfusion; 900 mg dose
  increase in median endometrial VFI: approximately 3 fold
Endometrial perfusion; 1,800 mg dose, 8-hour time point (p=0.0714)
  endometrial VI versus placebo: substantial increase
Endometrial perfusion; 1,800 mg dose, 24-hour time point (p=0.0625)
  Endometrial Fl: significant increases
Endometrial perfusion; 1,800 mg dose
  increase in median endometrial VFI: approximately 3 fold
[6]
  inhibitory activity with respect to uterine contraction, compared with (3E) diastereomer: markedly higher than that of the substantially pure (3E) diastereomer
